These results are taken from patent publication US20240285670A1, “THERAPEUTIC TREATMENT OF TUMORS BY BLOCKING THE HEME SYNTHESIS-EXPORT AXIS” (Università degli Studi di Torino, priority 2021, published 2024).

What all share (type): cell-based, human
The test system of data set [1] is Caco2 cells. The experiment in a line: Heme content (fluorescence assay) in Caco2 cells. The conditions noted are these: FLVCR1a-silenced vs scramble shRNA Caco2 cells, 5 mM 5-ALA, time course. The method, then:
(A) Heme content in Caco2 cells treated with 5 mM 5-ALA (black bars and white bars) or with 5 mM 5-ALA+0.5 mM SA (light grey outlined bars) for the indicated time points. […] Values are expressed as relative fluorescence intensity. Data represent mean±SEM, n=2. For statistical analyses, a two-way analysis of variance was used, followed by the Bonferroni correction for multiple group comparisons; **=p<0.01, ***=p<0.001. 5-ALA, 5-aminolevulinic acid; SA, succinylacetone. (B) Intracellular 5-ALA levels. […] Values are expressed as peak area/μg proteins. Data represent mean±SEM of n=4 wells pooled from two independent experiments. For statistical analyses, an unpaired Student's t-test was used; **=p<0.01. 5-ALA, 5-aminolevulinic acid. […] Values are expressed as peak area/μg proteins. […] Transcript abundance, normalized to beta-actin mRNA expression, is expressed as a fold increase over a calibrator sample. […] Band intensities were measured by densitometry and normalized to vinculin expression. […]
Intracellular heme concentration was measured using a fluorescence assay, as previously reported (Sinclair et al., 2001). […] Fluorescence (wavelength: excitation 405 nm-emission 660-720 nm) of the resultant protoporphyrin was assessed on a Glomax Multi Detection System (Promega Corporation, Madison WI, USA).
The endogenous protoporphyrin content (measured in parallel unheated samples in oxalic acid) was subtracted. […]

For data set [2], the system named is C80 cells. The experiment in a line: Mitochondrial ATP levels in C80 cells. The conditions noted are these: FLVCR1a-silenced vs scramble shRNA C80 cells. An excerpt:
(§1) (A, C, E) Activities of the mitochondrial electron transport chain complexes I-IV. FLVCR1a-silenced Caco2 (A), SKCO1 (C) or C80 cells (E) are compared to cells expressing a scramble shRNA. Results were expressed as nmol NAD^+/min/mg mitochondrial protein for complex I, nmol reduced cytochrome c/min/mg mitochondrial protein for complexes II-III, nmol oxidized cytochrome c/min/mg mitochondrial protein for complex IV. Data represent mean±SEM, n=3. For statistical analyses, an unpaired Student's t-test was used; *=p<0.05, **=p<0.01. (B, D, F) Mitochondrial ATP levels measured by a bioluminescent assay kit. FLVCR1a-silenced Caco2 (B), SKCO1 (D) or C80 cells (F) are compared to cells expressing a scramble shRNA. Results are expressed as nmol/mg mitochondrial proteins. […] Results were expressed as nmol NAD^+/min/mg mitochondrial protein for complex I, nmol reduced cytochrome c/min/mg mitochondrial protein for complexes II-III, nmol oxidized cytochrome c/min/mg mitochondrial protein for complex IV. […] (H) Mitochondrial ATP levels measured by a bioluminescent assay kit in Caco2 cells overexpressing FLVCR1a (indicated as FLVCR1a+) compared to cells stably transduced with an empty vector. Results are expressed as nmol/mg mitochondrial proteins. […]
(§2) ATP levels in mitochondria extracts were assessed by the ATP Bioluminescent Assay Kit (Sigma-Aldrich, St. Louis, MO USA, catalog n° FLAA). […]

The test system of data set [3] is C80 cells. The experiment in a line: TCA cycle flux in C80 cells. The conditions noted are these: FLVCR1a-silenced vs scramble shRNA C80 cells. An excerpt: TCA cycle flux is reported in the centre of the figure and expressed as pmol CO2/h/mg protein. Data represent mean±SEM, n=3. For statistical analyses, an unpaired Student's t-test was used. **=p<0.01. Moreover, TCA cycle enzymes activities are reported in boxes and expressed as mU/mg mitochondrial proteins. Data represent mean±SEM, n=3. For statistical analyses, an unpaired Student's t-test was used; *=p<0.05, ***=p<0.001. […] Results are expressed as pmol CO2/h/mg protein. Data represent mean±SEM, n=3. For statistical analyses, an unpaired Student's t-test was used; *=p<0.05, **=p<0.01.
The glucose flux through TCA cycle was measured by radiolabeling cells with 2 μCi/ml [6-^14C]-glucose (55 mCi/mmol; PerkinElmer, Waltham, MA, USA, catalog n° NEC045X). Cell suspensions were incubated for 1 hour in a closed experimental system to trap the ^14CO2 developed from [^14C]-glucose. The reaction was stopped by injecting 0.5 ml of 0.8N HClO4. The amount of glucose transformed into CO2 through the TCA cycle was calculated as described (Riganti et al., 2004) and expressed as pmoles CO2/h/mg cell proteins.

Data set [4] relates to Caco2 cells. The experiment in a line: Mitochondrial ATP levels in Caco2 cells. Particulars: FLVCR1a-silenced vs scramble shRNA Caco2 cells.
Excerpt: as §1, §2

As to “FLVCR1a shRNA: shRNA specifically down-regulating FLVCR1a without targeting FLVCR1b; pLKO.1 lentiviral clone TRCN0000059599, antisense SEQ ID No.: 2 (antisense TTGCTAATGATGCTGTACTGG; sense CCAGTACAGCATCATTAGCAA)”, the “intracellular heme upon induction of heme biosynthesis” value in the data set on Caco2 cells [1] is “faster and higher increase in the amount of intracellular heme than control cells”. For the same substance, in the data set with C80 cells [2], the “mitochondrial ATP levels” value is “increased”. Further, the TCA cycle flux result in the data set with C80 cells [3] is “Increased TCA cycle flux”. Besides, the “ATP levels in mitochondria” value with Caco2 cells [4] is reported as “significantly higher ATP levels in mitochondria”.
